Results from ChEMBL document CHEMBL1146473, “Tyromycic acids B-E, new lanostane triterpenoids from the mushroom Tyromyces fissilis” (J Nat Prod, 2004).
Calls of active or inactive are those of the source. The rule behind the calls is not given here.

Assays:
[1] = tested on: Human immunodeficiency virus 1; experiment: Antiviral activity against HIV1 infected in human MT4 cells; type: functional, organism-based
[2] = tested on: Radical scavenging activity; experiment: Antioxidant activity assessed as DPPH radical scavenging activity; type: functional

Row | Structure (SMILES) | Activity [1] | Activity [2]
1 | CC(=O)O[C@@H]1C=C2C(=CC[C@H]3C(C)(C)[C@@H](O)CC[C@]23C)[C@]2(C)CC[C@H]([C@H](C)CC/C=C(\C)C(=O)O)[C@@]12C | inactive | inactive
2 | C/C(=C\CC[C@@H](C)[C@H]1CC[C@@]2(C)C3=CC[C@H]4C(C)(C)C(=O)CC[C@]4(C)C3=C[C@@H](O)[C@]12C)C(=O)O | inactive | inactive
3 | CC(=O)O[C@@H]1C2=C(CC[C@H]3C(C)(C)C(=O)CC[C@]23C)[C@]2(C)CC[C@H]([C@H](C)CC/C=C(\C)C(=O)O)[C@@]2(C)[C@@H]1OC(C)=O | inactive | inactive
